US10202347B2, “Compound, production method therefor, and use of said compound” (MICROBIAL CHEMISTRY RESEARCH FOUNDATION, priority 2013, dated 2019)
In brackets after ≈: the same amount, converted by molar mass. Read-outs that look alike come from different tables or passages of the source.

Columns and labels:
[1] = system: H. influenza ARD476 strain; test: Measurement of MIC for H. influenza ARD476; type: cell-based; conditions: Haemophilus influenzae, ARD476STRAIN; HI medium, 18 hours, 37° C., 5% carbon dioxide; read-out: MIC H. influenzae ARD476
Experimental: (§1) Each of the above compounds was measured for minimum inhibitory concentration (MIC) for Haemophilus influenza.
(§2) Haemophilus influenza T-196 strain and H. influenza ARD476 strain each were statically cultured in a HI medium (Muller Hinton medium (product of Becton, Dickinson Co.) supplemented with 5% Fildes enrichment (product of Becton, Dickinson Co.)) at 37° C. overnight under aerobic conditions containing 5% carbon dioxide gas.
(§3) After completion of the culturing, the culture was suspended with the HI medium and diluted so that each Haemophilus influenza strain was 2×10^6 CFU/mL to 9×10^6 CFU/mL.
(§4) Each of the test samples (each of the above compounds, clarithromycin, and ampicillin) was prepared with the HI medium to have a concentration of 256 mg/L. From this concentration, the test sample was 2-fold diluted serially in 11 steps to 0.125 mg/L.
(§5) The above-diluted culture was added at 50 μL/well to 50 μL/well of the HI medium containing each of the test samples at the above concentrations, and was statically cultured for 18 hours at 37° C. under aerobic conditions containing 5% carbon dioxide gas.
(§6) After completion of the culturing, the presence or absence of proliferation of each bacterium was visually determined based on turbidity, and the MIC for each bacterial strain was obtained.

[2] = system: Enterococcus faecalis JCM5803 strain; test: Measurement of MIC for Enterococcus faecalis; type: cell-based; conditions: JCM5803, heart infusion broth medium, 37° C., 18 hours, read-out: MIC Enterococcus faecalis JCM5803
Experimental: Each of the above compounds was measured for minimum inhibitory concentration (MIC) for Enterococcus faecalis.
Enterococcus faecalis JCM5803 strain was cultured under shaking in a heart infusion broth medium (product of Becton, Dickinson Co.) at 37° C. overnight.
After completion of the culturing, the culture was diluted with the heart infusion broth medium so that the bacteria were 2×10^4 CFU/mL to 9×10^4 CFU/mL.
Each of the test samples (each of the above compounds, clarithromycin, and ampicillin) was prepared with the heart infusion broth medium to have a concentration of 256 mg/L. From this concentration, the test sample was 2-fold diluted serially in 11 steps to 0.125 mg/L.
The above-diluted culture was added at 50 μL/well to 50 μL/well of the heart infusion broth medium containing each of the test samples at the above concentrations, and was statically cultured at 37° C. for 18 hours.
as §6

[3] = system: Helicobacter pylori JCM12093 strain; test: Measurement of MIC for Helicobacter pylori JCM12093; type: cell-based; conditions: Helicobacter pylori, JCM12093; HP medium, 144 hours, 37° C., microaerobic; read-out: MIC Helicobacter pylori JCM 12093
Experimental: (§7) Each of the above compounds was measured for minimum inhibitory concentration (MIC) for Helicobacter pylori.
(§8) Helicobacter pylori JCM12093 strain and H. pylori JCM12095 strain each were statically cultured in a HP medium (brain heart infusion broth (product of Becton, Dickinson Co.) supplemented with 10% fetal bovine serum (product of Life Technologies Co.)) for 144 hours at 37° C. under microaerobic culture conditions (microaerobic conditions (N2:O2:CO2=85:5:10)).
(§9) After completion of the culturing, the culture was suspended with the HP medium and diluted so that Helicobacter pylori was 2×10^6 CFU/mL to 9×10^6 CFU/mL.
(§10) Each of the test samples (each of the above compounds, clarithromycin, and ampicillin) was prepared with the HP medium to have a concentration of 256 mg/L. From this concentration, the test sample was 2-fold diluted serially in 15 steps to 0.0078 mg/L.
(§11) The above-diluted culture was added at 50 μL/well to 50 μL/well of the HP medium containing each of the test samples at the above concentrations, and was statically cultured for 144 hours at 37° C. under microaerobic culture conditions (microaerobic conditions (N2:O2:CO2=85:5:10)). After completion of the culturing, the presence or absence of proliferation of each bacterium was visually determined based on turbidity, and the MIC for each bacterial strain was obtained.

[4] = system: H. pylori JCM12095 strain; test: Measurement of MIC for H. pylori JCM12095; type: cell-based; conditions: Helicobacter pylori, JCM12095; HP medium, 144 hours, 37° C., microaerobic; read-out: MIC H. pylori JCM 12095
Experimental: as §7, §8, §9, §10, §11

[5] = system: Haemophilus influenza T-196 strain; test: Measurement of MIC for Haemophilus influenza T-196; type: cell-based; conditions: HI medium, 18 hours, 37° C., 5% carbon dioxide; read-out: MIC Haemophilus influenzae T-196
Experimental: as §1, §2, §3, §4, §5, §6

[6] = system: Staphylococcus aureus FDA209P strain; test: Measurement of MIC for Staphylococcus aureus; type: cell-based; conditions: nutrient broth medium, 37° C. overnight, read-out: MIC Staphylococcus aureus FDA209P
Experimental: (§12) Each of the above compounds was measured for minimum inhibitory concentration (MIC) for Staphylococcus aureus and Escherichia coli.
(§13) Staphylococcus aureus FDA209P strain and Escherichia coli K-12 strain each were cultured under shaking in a nutrient broth medium (polypeptone (product of NIHON PHARMACEUTICAL Co.) 1%, fish extract for bacteria (product of KYOKUTO PHARMACEUTICAL INDUSTRIAL Co.) 1%, and sodium chloride 0.2%) at 37° C. overnight.
(§14) After completion of the culturing, the culture was diluted with the nutrient broth medium so that the bacteria were 2×10^6 CFU/mL to 9×10^6 CFU/mL.
(§15) Each of the test samples (each of the above compounds, clarithromycin, and ampicillin) was prepared with the nutrient broth medium to have a concentration of 256 mg/L. From this concentration, the test sample was 2-fold diluted serially in 11 steps to 0.125 mg/L.
as §11, with “nutrient broth” for “HP”, “cultured” for “cultured for 144 hours”, “overnight.” for “under microaerobic culture conditions (microaerobic conditions (N2:O2:CO2=85:5:10)).”

[7] = system: Escherichia coli K-12 strain; test: Measurement of MIC for Escherichia coli; type: cell-based; conditions: K12STRAIN, nutrient broth medium, 37° C. overnight, read-out: MIC Escherichia coli K-12
Experimental: as §12, §13, §14, §15
as §11, with “nutrient broth” for “HP”, “cultured” for “cultured for 144 hours”, “overnight.” for “under microaerobic culture conditions (microaerobic conditions (N2:O2:CO2=85:5:10)).”

[8] = system: human stomach cancer cells MKN-74 cocultured with normal stromal cells derived from the human stomach, Hs738; test: Cell proliferation test, coculture test with normal stromal cells Hs738 (GFP fluorescence); type: cell-based; conditions: coculture test, MKN-74 with stromal cells Hs738, cell proliferation rate, average of duplicate, read-out: Cocul IC50
Experimental: (§16) Human stomach cancer cells MKN-74 (Riken Cell Bank) were cultured at 37° C. and 5% CO2 in DMEM supplemented with 10% FBS (product of GIBCO Co.), 100 units/mL penicillin G (product of Invitrogen Co.), and 100 μg/mL streptomycin (product of Invitrogen Co.).
(§17) The above cancer cells were allowed to undergo gene transfer of Green fluorescence protein (GFP) expression vector, pEGFP-C1 (product of BD Biosciences Co.) using the Lipofectamine reagent (product of Invitrogen Co.), to thereby clone cells stably expressing GFP.
Normal stromal cells derived from the human stomach, Hs738 ((CRL-7869), ATCC) were cultured at 37° C. and 5% CO2 in DMEM supplemented with 10% FBS, 100 units/mL penicillin G (product of Invitrogen Co.), 100 μg/mL streptomycin (product of Invitrogen Co.), 5 μg/mL insulin, 5 μg/mL transferrin (product of Wako Pure Chemical Industries Co.), 1.4 μM hydrocortisone (product of Sigma Co.), and […] basic-FGF (product of Pepro Tech Co.).
The above normal stromal cells derived from the human stomach, Hs738 were dispersed at 5×10^4 cells/mL in DMEM containing 1% dialyzed serum, 5 μg/mL insulin, 5 μg/mL transferrine (product of Wako Pure Chemical Industries Co.), and 1.4 μM hydrocortisone (product of Sigma Co.), and were placed in a 96-well plate at 0.1 mL/well. Respective evaluation samples (the compounds expressed by Structural Formulas (1) to (13)) were added thereto at respective concentrations, followed by culturing at 37° C. and 5% CO2 for 2 days.
Next, the above human stomach cancer cells MKN-74 were dispersed in DMEM at 5×10^5 cells/mL, and were placed at 10 μL/well in the plate in which the above normal stromal cells derived from the human stomach, Hs738 had been cultured, followed by further coculturing at 37° C. and 5% CO2 for 3 days.
(§18) Measurement of cell proliferation rates in the above coculture test and monoculture test was performed in the following manner.
(§19) The medium was removed from the wells of the above plate, and a cytolysis liquid (10 mM Tris-HCl [pH 7.4], 150 mM NaCl, 0.9 mM CaCl2, and 1% Triton X-100) was added thereto at 0.1 mL/well to lyse the cells. The fluorescence intensity of GFP was measured at an excitation wavelength of 485 nm and a fluorescence wavelength of 538 nm, and the cell proliferation rates were calculated from the following formula. Cell proliferation rate (%)=(Fluorescence intensity in the presence of the evaluation sample/Fluorescence intensity in the absence of the evaluation sample)×100

[9] = Acute toxicity test (maximum tolerated dose); conditions: female, ICR, mouse, in vivo, iv
Excerpt: ICR mice (female, 4 weeks old, product of Charles River Co.) were bred under the SPF conditions.
One half of the administration dose at which the mice were recognized to be dead or have serious toxicity for the observation period of 2 weeks was defined as the maximum tolerated dose (MTD) in the present experiment.

[10] = system: human stomach cancer cells MKN-74; test: Cell proliferation test, monoculture test (GFP fluorescence); type: cell-based; conditions: monoculture test, MKN-74 alone, cell proliferation rate, average of duplicate, read-out: Mono IC50
Experimental: as §16, §17
Only DMEM containing 1% dialyzed serum, 5 μg/mL insulin, 5 μg/mL transferrine (product of Wako Pure Chemical Industries Co.), and 1.4 μM hydrocortisone (product of Sigma Co.) was placed in a 96-well plate at 0.1 mL/well, and respective evaluation samples (the compounds expressed by Structural Formulas (1) to (13)) were added thereto at respective concentrations, followed by maintaining at 37° C. and 5% CO2 for 2 days.
Next, the above human stomach cancer cells MKN-74 were dispersed in DMEM at 5×10^5 cells/mL, and were placed in the above plate at 10 μL/well, followed by further coculturing at 37° C. and 5% CO2 for 3 days.
as §18, §19

Row | SMILES | MIC [1] [µg/mL] | MIC [2] [µg/mL] | MIC [3] [µg/mL] | MIC [4] [µg/mL] | MIC [5] [µg/mL] | MIC [6] [µg/mL] | MIC [7] [µg/mL] | IC50 [8] [µg/mL] | MTD at 2 weeks ([9]; MTD) [mg/kg] | IC50 [10] [µg/mL] | MTD at 2 weeks ([9]; intravenous administration, ICR mice, observed for 2 weeks, one half of the dose with death or serious toxicity, read-out: MTD) [mg/kg]
1 | CC1(C)S[C@@H]2[C@H](NC(=O)[C@H](N)c3ccccc3)C(=O)N2[C@H]1C(=O)O [ABPC, ampicillin, reference compound] | 64 (≈ 183 µM) | 0.5 (≈ 1.43 µM) | 0.25 (≈ 0.715 µM) | 0.13 (≈ 0.372 µM) | 0.5 (≈ 1.43 µM) | < 0.125 | 4 (≈ 11.4 µM) | – | – | – | –
2 | CC[C@H]1OC(=O)[C@H](C)[C@@H](O[C@H]2C[C@@](C)(OC)[C@@H](O)[C@H](C)O2)[C@H](C)[C@@H](O[C@@H]2O[C@H](C)C[C@H](N(C)C)[C@H]2O)[C@](C)(OC)C[C@@H](C)C(=O)[C@H](C)[C@@H](O)[C@]1(C)O [Clarithromycin, clarithromycin, reference compound] | 4 (≈ 5.35 µM) | 0.5 (≈ 0.668 µM) | 0.008 (≈ 0.0107 µM) | 0.008 (≈ 0.0107 µM) | 8 (≈ 10.7 µM) | < 0.125 | 16 (≈ 21.4 µM) | – | – | – | –
3 | CCCCCCCCc1nc2ccccc2c(OCC(=O)OC)c1C [Structural Formula (1)] | – | – | – | – | – | – | – | 0.35 | ≥ 50 | 28.1 | –
4 | CCCCCCCCc1c(C)c(=O)c2ccccc2n1C#N [Structural Formula (7)] | – | – | – | – | – | – | – | 0.007 | 6.25 | > 100 | –
5 | CCCCCCCCc1c(C)c(=O)c2ccccc2n1CC(=O)SC [Structural Formula (9)] | – | – | – | – | – | – | – | 1.4 | ≥ 50 | 5.84 | –
6 | CCCCCCCCc1c(C)c(=O)c2ccccc2n1CNC(=O)SC [Structural Formula (10)] | – | – | – | – | – | – | – | 0.27 | – | 7.57 | ≥ 50
